From US11845752B2, “Substituted imidazo[1,5-a]pyrazines for the treatment of hepatitis B” (ALIGOS THERAPEUTICS, INC., priority 2020, dated 2023)
pEC50: −log10 of the molar value. Read-outs that look alike come from different tables or passages of the source.

Tested on: HBV
Experiment: HBV-DNA antiviral assay using HepG2.117 cells (intracellular HBV DNA by qPCR)
Format: cell-based, HBV genotype D
Details: HBV DNA inhibition, 3 days incubation, read-out: EC50
How it was run: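 HepG2.117 cells (stably integrated genotype D HBV, Tet-off) seeded without doxycycline to induce pgRNA, then treated next day with 9 concentrations (4-fold dilutions, 2% DMSO) for 3 days at 37 °C. Intracellular HBV DNA quantified by qPCR against standard curve, viability by ATP content; inhibition relative to DMSO control, EC50/EC90/CC50 by non-linear regression.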

[1] = Hepatitis B virus, HepG2.117, 72 h

| SMILES | pEC50 [1] | pEC50 |
| --- | --- | --- |
| CC1Cn2c(c(C(=O)NCc3ccccc3-c3ncccn3)n(-c3ccc(OC[C@@H](O)C(F)(F)F)cc3)c2=O)CN1C(=O)c1ccc(Br)c(C(F)(F)F)c1 (stereo in doubt) [Compound 71a, (6R*)-7-[4-bromo-3-(trifluoromethyl)benzoyl]-6-methyl-3-oxo-N-{[2-(pyrimidin-2-yl)phenyl]methyl}-2-{4-[(2R)-3,3,3-trifluoro-2-hydroxypropoxy]phenyl}-5H,6H,8H-imidazo[1,5-a]pyrazine-1-carboxamide] | > 7.30 |  |
| CC1Cn2c(c(C(=O)NCc3ccccc3-c3ncccn3)n(-c3ccc(OC[C@@H](O)C(F)(F)F)cc3)c2=O)CN1C(=O)c1ccc(Br)c(C(F)(F)F)c1 (stereo in doubt) [Compound 71b, (6S*)-7-[4-bromo-3-(trifluoromethyl)benzoyl]-6-methyl-3-oxo-N-{[2-(pyrimidin-2-yl)phenyl]methyl}-2-{4-[(2R)-3,3,3-trifluoro-2-hydroxypropoxy]phenyl}-5H,6H,8H-imidazo[1,5-a]pyrazine-1-carboxamide] |  | 6.30 to 7.30 |
| C[C@@H]1Cn2c(c(C(=O)NCc3ccccc3-c3ccncn3)n(-c3ccc4c(cnn4CC(F)(F)F)c3)c2=O)CN1C(=O)c1ccc(Br)c(C(F)(F)F)c1 (stereo in doubt) [Compound 72a, rac-(6R)-7-[4-bromo-3-(trifluoromethyl)benzoyl]-6-methyl-3-oxo-N-[(2-pyrimidin-4-ylphenyl)methyl]-2-[1-(2,2,2-trifluoroethyl)indazol-5-yl]-6,8-dihydro-SH-imidazo[1,5-a]pyrazine-1-carboxamide] | > 7.30 |  |
| C[C@H]1Cn2c(c(C(=O)NCc3ccccc3-c3ccncn3)n(-c3ccc4c(cnn4CC(F)(F)F)c3)c2=O)CN1C(=O)c1ccc(Br)c(C(F)(F)F)c1 (stereo in doubt) [Compound 72b, rac-(6S)-7-[4-bromo-3-(trifluoromethyl)benzoyl]-6-methyl-3-oxo-N-[(2-pyrimidin-4-ylphenyl)methyl]-2-[1-(2,2,2-trifluoroethyl)indazol-5-yl]-6,8-dihydro-SH-imidazo[1,5-a]pyrazine-1-carboxamide] | 6.30 to 7.30 |  |
| C[C@@H]1Cn2c(c(C(=O)NCc3ccccc3-c3ccncn3)n(-c3ccc(OC[C@@](C)(O)C(F)(F)F)cc3)c2=O)CN1C(=O)c1ccc(Br)c(C(F)(F)F)c1 (stereo in doubt) [Compound 82a, rac-(6R)-7-[4-bromo-3-(trifluoromethyl)benzoyl]-6-methyl-3-oxo-N-[(2-pyrimidin-4-ylphenyl)methyl]-2-[4-[rac-(2R)-3,3,3-trifluoro-2-hydroxy-2-methyl-propoxy]phenyl]-6,8-dihydro-5H-imidazo[1,5-a]pyrazine-1-carboxamide] | 6.30 to 7.30 |  |
| C[C@H]1Cn2c(c(C(=O)NCc3ccccc3-c3ccncn3)n(-c3ccc(OC[C@@](C)(O)C(F)(F)F)cc3)c2=O)CN1C(=O)c1ccc(Br)c(C(F)(F)F)c1 (stereo in doubt) [Compound 82b, rac-(6S)-7-[4-bromo-3-(trifluoromethyl)benzoyl]-6-methyl-3-oxo-N-[(2-pyrimidin-4-ylphenyl)methyl]-2-[4-[rac-(2R)-3,3,3-trifluoro-2-hydroxy-2-methyl-propoxy]phenyl]-6,8-dihydro-SH-imidazo[1,5-a]pyrazine-1-carboxamide] | > 7.30 |  |
| C[C@@H]1Cn2c(c(C(=O)NCc3ccccc3-c3ccncn3)n(-c3ccc(OC[C@](C)(O)C(F)(F)F)cc3)c2=O)CN1C(=O)c1ccc(Br)c(C(F)(F)F)c1 (stereo in doubt) [Compound 83a, rac-(6R)-7-[4-bromo-3-(trifluoromethyl)benzoyl]-6-methyl-3-oxo-N-[(2-pyrimidin-4-ylphenyl)methyl]-2-[4-[rac-(2S)-3,3,3-trifluoro-2-hydroxy-2-methyl-propoxy]phenyl]-6,8-dihydro-SH-imidazo[1,5-a]pyrazine-1-carboxamide] | 6.30 to 7.30 |  |
| C[C@H]1Cn2c(c(C(=O)NCc3ccccc3-c3ccncn3)n(-c3ccc(OC[C@](C)(O)C(F)(F)F)cc3)c2=O)CN1C(=O)c1ccc(Br)c(C(F)(F)F)c1 (stereo in doubt) [Compound 83b, rac-(6S)-7-[4-bromo-3-(trifluoromethyl)benzoyl]-6-methyl-3-oxo-N-[(2-pyrimidin-4-ylphenyl)methyl]-2-[4-[rac-(2S)-3,3,3-trifluoro-2-hydroxy-2-methyl-propoxy]phenyl]-6,8-dihydro-5H-imidazo[1,5-a]pyrazine-1-carboxamide] | 6.30 to 7.30 |  |
| C[C@@H]1Cn2c(c(C(=O)NCc3ccccc3-c3ccccn3)n(-c3ccc(OC[C@@](C)(O)C(F)(F)F)cc3)c2=O)CN1C(=O)c1ccc(Br)c(C(F)(F)F)c1 (stereo in doubt) [Compound 89a, rac-(6R)-7-[4-bromo-3-(trifluoromethyl)benzoyl]-6-methyl-3-oxo-N-[[2-(2-pyridyl)phenyl]methyl]-2-[4-[rac-(2R)-3,3,3-trifluoro-2-hydroxy-2-methyl-propoxy]phenyl]-6,8-dihydro-5H-imidazo[1,5-a]pyrazine-1-carboxamide] | > 7.30 |  |
| C[C@H]1Cn2c(c(C(=O)NCc3ccccc3-c3ccccn3)n(-c3ccc(OC[C@@](C)(O)C(F)(F)F)cc3)c2=O)CN1C(=O)c1ccc(Br)c(C(F)(F)F)c1 (stereo in doubt) [Compound 89b, rac-(6S)-7-[4-bromo-3-(trifluoromethyl)benzoyl]-6-methyl-3-oxo-N-[[2-(2-pyridyl)phenyl]methyl]-2-[4-[rac-(2R)-3,3,3-trifluoro-2-hydroxy-2-methyl-propoxy]phenyl]-6,8-dihydro-SH-imidazo[1,5-a]pyrazine-1-carboxamide] | > 7.30 |  |
| C[C@@H]1Cn2c(c(C(=O)NCc3ccccc3-c3ccccn3)n(-c3ccc(OC[C@](C)(O)C(F)(F)F)cc3)c2=O)CN1C(=O)c1ccc(Br)c(C(F)(F)F)c1 (stereo in doubt) [Compound 90a, rac-(6R)-7-[4-bromo-3-(trifluoromethyl)benzoyl]-6-methyl-3-oxo-N-[[2-(2-pyridyl)phenyl]methyl]-2-[4-[rac-(2S)-3,3,3-trifluoro-2-hydroxy-2-methyl-propoxy]phenyl]-6,8-dihydro-5H-imidazo[1,5-a]pyrazine-1-carboxamide] | 6.30 to 7.30 |  |
| C[C@H]1Cn2c(c(C(=O)NCc3ccccc3-c3ccccn3)n(-c3ccc(OC[C@](C)(O)C(F)(F)F)cc3)c2=O)CN1C(=O)c1ccc(Br)c(C(F)(F)F)c1 (stereo in doubt) [Compound 90b, rac-(6S)-7-[4-bromo-3-(trifluoromethyl)benzoyl]-6-methyl-3-oxo-N-[[2-(2-pyridyl)phenyl]methyl]-2-[4-[rac-(2S)-3,3,3-trifluoro-2-hydroxy-2-methyl-propoxy]phenyl]-6,8-dihydro-5H-imidazo[1,5-a]pyrazine-1-carboxamide] | 6.30 to 7.30 |  |
| CC1Cn2c(c(C(=O)NCc3ccccc3-c3ncccn3)n(-c3ccc4c(cnn4C[C@@H](C)O)c3)c2=O)CN1C(=O)c1ccc(Br)c(C(F)(F)F)c1 (stereo in doubt) [Compound 91a, (6R*)-7-[4-bromo-3-(trifluoromethyl)benzoyl]-2-{1-[(2R)-2-hydroxypropyl]indazol-5-yl}-6-methyl-3-oxo-N-{[2-(pyrimidin-2-yl)phenyl]methyl}-5H,6H,8H-imidazo[1,5-a]pyrazine-1-carboxamide] | 6.30 to 7.30 |  |
| CC1Cn2c(c(C(=O)NCc3ccccc3-c3ncccn3)n(-c3ccc4c(cnn4C[C@@H](C)O)c3)c2=O)CN1C(=O)c1ccc(Br)c(C(F)(F)F)c1 (stereo in doubt) [Compound 91b, (6S*)-7-[4-bromo-3-(trifluoromethyl)benzoyl]-2-{1-[(2R)-2-hydroxypropyl]indazol-5-yl}-6-methyl-3-oxo-N-{[2-(pyrimidin-2-yl)phenyl]methyl}-5H,6H,8H-imidazo[1,5-a]pyrazine-1-carboxamide] |  | 6.30 to 7.30 |
| O=C(NCc1ccccc1-c1ncccn1)c1c2n(c(=O)n1-c1ccc(OC3CC3)cc1)C[C@@H](COCc1ccccc1)N(C(=O)c1ccc(Br)c(C(F)(F)F)c1)C2 (stereo in doubt) [Compound 130, 6-(benzyloxymethyl)-7-[4-bromo-3-(trifluoromethyl)benzoyl]-2-[4-(cyclopropoxy)phenyl]-3-oxo-N-[(2-pyrimidin-2-ylphenyl)methyl]-6,8-dihydro-5H-imidazo[1,5-a]pyrazine-1-carboxamide] | 5.30 to 6.30 |  |
| O=C(NCc1ccccc1-c1ncccn1)c1c2n(c(=O)n1-c1ccc(OC3CC3)cc1)C[C@@H](CO)N(C(=O)c1ccc(Br)c(C(F)(F)F)c1)C2 (stereo in doubt) [Compound 131, 7-[4-bromo-3-(trifluoromethyl)benzoyl]-2-[4-(cyclopropoxy)phenyl]-6-(hydroxymethyl)-3-oxo-N-[(2-pyrimidin-2-ylphenyl)methyl]-6,8-dihydro-5H-imidazo[1,5-a]pyrazine-1-carboxamide] | 5.30 to 6.30 |  |
| CC1Cn2c(c(C(=O)NCc3ccccc3-c3cccnn3)n(-c3ccc(OCC(C)(O)C(F)(F)F)cc3)c2=O)CN1C(=O)c1ccc(Br)c(C(F)(F)F)c1 (stereo not shown) [Compound 85a, 7-(4-bromo-3-(trifluoromethyl)benzoyl)-6-methyl-3-oxo-N-(2-(pyridazin-3-yl)benzyl)-2-(4-(3,3,3-trifluoro-2-hydroxy-2-methylpropoxy)phenyl)-2,3,5,6,7,8-hexahydroimidazo[1,5-a]pyrazine-1-carboxamide] | 6.30 to 7.30 |  |
| CC(C)(O)COc1ccc(-n2c(C(=O)NCc3ccccc3)c3n(c2=O)CCN(C(=O)c2ccc(Br)c(Cl)c2)C3)cc1 [Compound 114, N-benzyl-7-(4-bromo-3-chloro-benzoyl)-2-[4-(2-hydroxy-2-methyl-propoxy)phenyl]-3-oxo-6,8-dihydro-5H-imidazo[1,5-a]pyrazine-1-carboxamide] | 6.30 to 7.30 |  |
| C[C@@H]1CN(c2ccc(-n3c(C(=O)NCc4ccccc4)c4n(c3=O)CCN(C(=O)c3ccc(Br)c(Cl)c3)C4)cc2)CCN1C [Compound 116, N-benzyl-7-(4-bromo-3-chloro-benzoyl)-3-oxo-2-[4-[(3R)-3,4-dimethylpiperazin-1-yl]phenyl]-6,8-dihydro-5H-imidazo[1,5-a]pyrazine-1-carboxamide] | 6.30 to 7.30 |  |
